Measured values taken from ChEMBL document CHEMBL3769397, “A new GLP-1 analogue with prolonged glucose-lowering activity in vivo via backbone-based modification at the N-terminus” (Bioorg Med Chem, 2016).

What was measured:
[1] = target: T1, DPP4 (dipeptidyl peptidase 4) (Homo sapiens, UniProt P27487); assay: Half life of compound assessed as recombinant human DPP4-mediated cleavage by RP-HPLC analysis; assay type: ADME
[2] = target: Glucagon-like peptide 1 receptor (Homo sapiens, UniProt P43220); assay: Activation of human GLP1R expressed in HEK293 cells preincubated for 30 mins followed by addition of cAMP-d2 conjugate/cryptate conjugate incubated for 60 mins by fluorescence analysis; assay type: functional, cell-based
[3] = tested on: Mus musculus; assay: Reduction in blood glucose in Kunming mouse assessed as blood glucose level at 25 nmol/kg, ip at administered 0 mins followed by first glucose challenge at 40 mins followed by second glucose challenge at 310 mins and measured at 40 mins by glucose tolerance test (reference value: 4.9 to 6.3 mmol/L); assay type: functional
[4] = tested on: Mus musculus; assay: Reduction in blood glucose in Kunming mouse assessed as blood glucose peak value at 25 nmol/kg, ip at administered 0 mins followed by first glucose challenge at 40 mins followed by second glucose challenge at 310 mins and measured at 325 mins by glucose tolerance test relative to control; assay type: functional; set-up: scale not given: the % may be the effect or the level left
[5] = target: T1, DPP4 (dipeptidyl peptidase 4); assay: Drug degradation assessed as recombinant human DPP4-mediated cleavage by measuring compound remaining after 12 hrs by RP-HPLC analysis; assay type: ADME; conditions: read-out: Stability
[6] = tested on: Mus musculus; assay: Reduction in blood glucose in Kunming mouse assessed as blood glucose level at 25 nmol/kg, ip at administered 0 mins followed by first glucose challenge at 40 mins followed by second glucose challenge at 310 mins and measured at 430 mins by glucose tolerance test (reference value: 4.9 to 6.3 mmol/L); assay type: functional
[7] = target: T1, DPP4 (dipeptidyl peptidase 4); assay: Drug degradation assessed as recombinant human DPP4-mediated cleavage by measuring compound remaining after 72 hrs by RP-HPLC analysis; assay type: ADME; conditions: read-out: Stability
[8] = tested on: Mus musculus; assay: Reduction in blood glucose in Kunming mouse assessed as blood glucose level at 25 nmol/kg, ip at administered 0 mins followed by first glucose challenge at 40 mins followed by second glucose challenge at 310 mins and measured at 310 mins by glucose tolerance test (reference value: 4.9 to 6.3 mmol/L); assay type: functional
[9] = tested on: Mus musculus; assay: Reduction in blood glucose in Kunming mouse assessed as blood glucose level at 25 nmol/kg, ip at administered 0 mins followed by first glucose challenge at 40 mins followed by second glucose challenge at 310 mins and measured at 350 mins by glucose tolerance test (reference value: 4.9 to 6.3 mmol/L); assay type: functional
[10] = target: T1, DPP4 (dipeptidyl peptidase 4); assay: Drug degradation assessed as recombinant human DPP4-mediated cleavage by measuring compound remaining after 96 hrs by RP-HPLC analysis; assay type: ADME; conditions: read-out: Stability
[11] = tested on: Mus musculus; assay: Reduction in blood glucose in Kunming mouse assessed as blood glucose AUC at 25 nmol/kg, ip at administered 0 mins followed by first glucose challenge at 40 mins measured at 80 mins by glucose tolerance test relative to control; assay type: functional; set-up: scale not given: the % may be the effect or the level left
[12] = target: T1, DPP4 (dipeptidyl peptidase 4); assay: Drug degradation assessed as recombinant human DPP4-mediated cleavage by measuring compound remaining after 24 hrs by RP-HPLC analysis; assay type: ADME; conditions: read-out: Stability
[13] = tested on: Mus musculus; assay: Reduction in blood glucose in Kunming mouse assessed as blood glucose level at 25 nmol/kg, ip at administered 0 mins followed by first glucose challenge at 40 mins followed by second glucose challenge at 310 mins and measured at 160 mins by glucose tolerance test (reference value: 4.9 to 6.3 mmol/L); assay type: functional
[14] = tested on: Mus musculus; assay: Reduction in blood glucose in Kunming mouse assessed as blood glucose level at 25 nmol/kg, ip at administered 0 mins followed by first glucose challenge at 40 mins followed by second glucose challenge at 310 mins and measured at 385 mins by glucose tolerance test (reference value: 4.9 to 6.3 mmol/L); assay type: functional
[15] = target: T1, DPP4 (dipeptidyl peptidase 4); assay: Drug degradation assessed as recombinant human DPP4-mediated cleavage by measuring compound remaining after 48 hrs by RP-HPLC analysis; assay type: ADME; conditions: read-out: Stability
[16] = tested on: Mus musculus; assay: Reduction in blood glucose in Kunming mouse assessed as blood glucose AUC at 25 nmol/kg, ip at administered 0 mins followed by first glucose challenge at 40 mins followed by second glucose challenge at 310 mins and measured at 325 mins by glucose tolerance test relative to control; assay type: functional; set-up: scale not given: the % may be the effect or the level left
[17] = tested on: Mus musculus; assay: Reduction in blood glucose in Kunming mouse assessed as blood glucose level at 25 nmol/kg, ip at administered 0 mins followed by first glucose challenge at 40 mins followed by second glucose challenge at 310 mins and measured at 55 mins by glucose tolerance test (reference value: 4.9 to 6.3 mmol/L); assay type: functional
[18] = tested on: Mus musculus; assay: Reduction in blood glucose in Kunming mouse assessed as blood glucose level at 25 nmol/kg, ip at administered 0 mins followed by first glucose challenge at 40 mins followed by second glucose challenge at 310 mins and measured at 325 mins by glucose tolerance test (reference value: 4.9 to 6.3 mmol/L); assay type: functional
[19] = Retention time of compound over 30 mins by HPLC analysis; assay type: physicochemical; conditions: 0.5 h
[20] = tested on: Mus musculus; assay: Reduction in blood glucose in Kunming mouse assessed as blood glucose level at 25 nmol/kg, ip at administered 0 mins followed by first glucose challenge at 40 mins followed by second glucose challenge at 310 mins and measured at 115 mins by glucose tolerance test (reference value: 4.9 to 6.3 mmol/L); assay type: functional
[21] = tested on: Mus musculus; assay: Reduction in blood glucose in Kunming mouse assessed as blood glucose peak value at 25 nmol/kg, ip at administered 0 mins followed by first glucose challenge at 40 mins measured at 80 mins by glucose tolerance test relative to control; assay type: functional; set-up: scale not given: the % may be the effect or the level left
[22] = tested on: Mus musculus; assay: Reduction in blood glucose in Kunming mouse assessed as blood glucose level at 25 nmol/kg, ip at administered 0 mins followed by first glucose challenge at 40 mins followed by second glucose challenge at 310 mins and measured at 80 mins by glucose tolerance test (reference value: 4.9 to 6.3 mmol/L); assay type: functional

T1 sequence (P27487 whole entry): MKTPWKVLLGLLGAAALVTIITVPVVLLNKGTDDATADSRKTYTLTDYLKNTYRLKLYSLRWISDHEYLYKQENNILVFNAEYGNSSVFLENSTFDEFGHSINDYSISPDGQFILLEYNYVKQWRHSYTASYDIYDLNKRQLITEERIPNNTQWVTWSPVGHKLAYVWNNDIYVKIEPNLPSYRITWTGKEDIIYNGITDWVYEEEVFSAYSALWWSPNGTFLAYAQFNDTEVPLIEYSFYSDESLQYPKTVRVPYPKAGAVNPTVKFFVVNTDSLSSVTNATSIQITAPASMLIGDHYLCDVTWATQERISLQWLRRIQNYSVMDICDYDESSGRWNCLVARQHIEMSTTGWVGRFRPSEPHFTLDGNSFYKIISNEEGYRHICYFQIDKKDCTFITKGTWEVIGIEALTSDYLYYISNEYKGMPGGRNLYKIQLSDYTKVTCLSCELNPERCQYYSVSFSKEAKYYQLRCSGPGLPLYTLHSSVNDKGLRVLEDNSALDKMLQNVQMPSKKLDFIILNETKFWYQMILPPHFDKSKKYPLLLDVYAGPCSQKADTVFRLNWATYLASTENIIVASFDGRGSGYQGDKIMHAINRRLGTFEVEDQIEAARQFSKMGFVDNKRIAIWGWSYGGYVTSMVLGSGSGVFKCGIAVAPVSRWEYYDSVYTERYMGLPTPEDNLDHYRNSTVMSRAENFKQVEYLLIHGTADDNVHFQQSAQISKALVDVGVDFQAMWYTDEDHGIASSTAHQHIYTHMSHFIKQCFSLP
Chain of Glucagon-like peptide 1 receptor (P43220 whole entry): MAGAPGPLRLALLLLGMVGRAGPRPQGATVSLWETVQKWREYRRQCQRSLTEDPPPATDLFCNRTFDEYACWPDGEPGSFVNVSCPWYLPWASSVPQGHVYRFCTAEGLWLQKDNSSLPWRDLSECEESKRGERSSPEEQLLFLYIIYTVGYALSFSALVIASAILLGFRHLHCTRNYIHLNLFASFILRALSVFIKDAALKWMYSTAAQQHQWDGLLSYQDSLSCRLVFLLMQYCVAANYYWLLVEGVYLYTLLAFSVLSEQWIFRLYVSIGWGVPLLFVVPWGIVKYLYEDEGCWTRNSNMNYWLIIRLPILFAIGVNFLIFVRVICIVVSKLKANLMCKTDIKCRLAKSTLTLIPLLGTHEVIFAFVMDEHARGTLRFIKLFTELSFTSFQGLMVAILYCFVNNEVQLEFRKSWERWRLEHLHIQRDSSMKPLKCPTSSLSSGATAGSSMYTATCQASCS

- half-life [1]: > 96 h
- EC50 [2]: 0.0329 nM
- remaining at 12 h [5]: 100%
- remaining at 72 h [7]: 100%
- remaining at 96 h [10]: 100%
- remaining at 24 h [12]: 100%
- remaining at 48 h [15]: 100%
- Retention_time [19]: 13.751 min
SMILES: CC[C@H](C)[C@H](NC(=O)[C@H](Cc1ccccc1)NC(=O)[C@H](CCC(=O)O)NC(=O)[C@H](CCCCN)NC(=O)[C@H](C)NC(=O)[C@H](C)NC(=O)[C@H](CCC(N)=O)NC(=O)CNC(=O)[C@H](CCC(=O)O)NC(=O)[C@H](CC(C)C)NC(=O)[C@H](Cc1ccc(O)cc1)NC(=O)[C@H](CO)NC(=O)[C@H](CO)NC(=O)[C@@H](NC(=O)[C@H](CC(=O)O)NC(=O)[C@H](CO)NC(=O)[C@@H](NC(=O)[C@H](Cc1ccccc1)NC(=O)[C@@H](NC(=O)CNC(=O)[C@H](CCC(=O)O)NC(=O)CCNC(=O)[C@@H](N)Cc1cnc[nH]1)[C@@H](C)O)[C@@H](C)O)C(C)C)C(=O)N[C@@H](C)C(=O)N[C@@H](Cc1c[nH]c2ccccc12)C(=O)N[C@@H](CC(C)C)C(=O)N[C@H](C(=O)N[C@@H](CCCCN)C(=O)NCC(=O)N[C@@H](CCCNC(=N)N)C(N)=O)C(C)C
- Activity [3]: 6.5 mmol/L
- Activity [4]: 84%
- Activity [6]: 6.8 mmol/L
- Activity [8]: 6.3 mmol/L
- Activity [9]: 16.8 mmol/L
- Activity [11]: 63%
- Activity [13]: 7.8 mmol/L
- Activity [14]: 9.8 mmol/L
- Activity [16]: 81%
- Activity [17]: 12.8 mmol/L
- Activity [18]: 19.6 mmol/L
- Activity [20]: 11.8 mmol/L
- Activity [21]: 61%
- Activity [22]: 16 mmol/L
